Results from US20130115256A1, “METHODS FOR TREATING OR PREVENTING VASCULAR GRAFT FAILURE” (priority 2010, published 2013).

Key:
[1] = tested on: human coronary artery endothelial cells (HCAEC); assay: TNF-α-induced IL-6 and IL-8 expression in HCAEC (ELISA); type: cell-based; settings: 0.5 mM MMI-0100, 24 hours after 6 hour TNF-α
Procedure: Primary human coronary artery endothelial cells (HCAEC) were cultured and seeded onto a 96-well plate, using methods described in the MTS proliferation assay above. Cells were again stimulated with 20 ng/ml of TNF-α for 6 hours and then treated with MMI-0100 (SEQ ID NO: 1) for approximately 24 hours. Supernatants were then collected and analyzed for drug effect on inflammatory cytokines.
IL-6 (Cat #: 900-K16; Lot #: 0909016) and IL-8 (Cat #: 900-K18; Lot #: 0209018) ELISA kits (Peprotech; Rocky Hill, N.J.) were used to measure levels of these cytokines from HCAEC supernatants following treatment with MMI-0100 ([…]; SEQ ID NO: 1). The Human IL-6 ELISA development kit contains the key components required for the quantitative measurement of natural and/or recombinant hIL-6 in a sandwich ELISA format within the range of 32-2000 pg/ml. Human IL-8 ELISA development kit contains the key components required for the quantitative measurement of natural and/or recombinant hIL-8 in a sandwich ELISA format within the range of 16-1000 pg/ml.
Briefly, 10 μl of supernatant was diluted with 90 μl of diluents; 3 replicates of each sample were used. Data were collected at 405 nm with correction at 650 nm on a plate reader. Each plate was monitored for 1 hour with readings taken every 5 minutes. Concentrations of IL-6 and IL-8 in test samples were determined by extrapolating from a standard curve. […]

[2] = tested on: mouse vein graft (intrathoracic inferior vena cava); assay: Mouse vein graft model; type: in vivo
Procedure: 12-week-old C57BL/6 wild type mice (Harlan) were used for all experiments, as previously described (Muto, A. et al., J. Exp. Med., 2011, 208(3): 561-575, incorporated herein by reference in its entirety). […] Prior to implantation, the vein was treated ex vivo with 100 μM of MMI-0100 ([…] (SEQ ID NO: 1)) peptide solution, or control PBS solution, for 20 minutes at room temperature.
To implant the vein graft, a midline incision was made in the abdomen of a recipient mouse and the infrarenal abdominal aorta was exposed. The abdominal aorta was temporarily occluded with atraumatic micro-clamps and a segment corresponding to the length of the vein graft was excised. The vein was sutured into the arterial circulation using 10-0 nylon in continuous fashion.
Vein grafts were followed postoperatively using the Vevo770® High-Resolution Imaging System (VisualSonics, Toronto, Canada), with weekly measurements of graft wall thickness. At 28 days after surgery, mice were sacrificed to allow explantation of the vein graft. Tissue was either frozen with RNA stabilization reagent (Qiagen) or explanted for paraffin embedding after circulatory flushing with ice-cold PBS followed by 4% paraformaldehyde perfusion-fixation. Vein graft wall thickness, lumen diameter, and outer wall diameter (elastic lamina) were measured in elastin-stained sections using computer morphometry (ImageJ).
Vein graft samples were fixed as described above and harvested for histology. Specimens were embedded in paraffin and cut in cross section (5 μm). Hematoxylin & Eosin, Masson trichrome, and van Gieson elastin staining were performed for all samples. Cells were cultured on gelatin-coated cover slips and fixed with methanol.
All sections were treated for antigen retrieval using 10 mmol/L citrate buffer (pH 6.0) prior to boiling or proteinase K (20 μg/ml) treatment, at room temperature, for 10-15 minutes. Immunohistochemical detection was performed using DAB as well as NovaRED® substrate (Vector). Sections were counterstained with Mayer's Hematoxylin.
The efficacy of MMI-0100 ([…]; SEQ ID NO: 1) in treating intimal hyperplasia in vivo was examined using a mouse model of vein bypass graft. […] The IVC was soaked in a 100 μM solution of MMI-0100 ([…]; SEQ ID NO: 1) at room temperature for 20 minutes prior to implantation into a host (C57BL/6J) mouse to bypass the infrarenal aorta. Five treated and six untreated veins were transplanted for a total of 11 transplanted animals. Vein graft wall thickness was determined using a Vevo7700 ultrasound imaging system at each week. […]

[3] = Toxicity observation (test not specified)

For YARAAARQARAKALARQLGVAA [MMI-0100], the “TNF-α-induced IL-6 expression” value [1] was “reduced the level of TNF-α-induced IL-6 expression to that of the untreated control”, the “TNF-α-induced IL-8 expression” value [1] was “no effect” and the “reduced wall thickness compared to control grafts, histological staining” value ([2]; 100 μM ex vivo 20 minutes, 4 weeks) was 72%. For the same sequence, the “F4/80-positive cells infiltrating into vein grafts” value ([2]; 100 μM ex vivo 20 minutes, 4 weeks, immunohistochemistry) was “fewer”, the “vein graft wall thickness ratio by ultrasound” value ([2]; follow-up study, 100 μM ex vivo 20 minutes, 4 weeks (control grafts 4.7-fold)) was 2.6 fold and the “grafted vessel wall thickness relative to the originally harvested IVC” value ([2]; vein soaked ex vivo in 100 μM for 20 minutes, 4 weeks after graft, ultrasound (control almost five times)) was “about 2.5 times”. The “evidence of toxicity, tissue erosion, or necrosis” value [3] was “did not show any evidence”.
